Read-outs that look alike come from different tables or passages of the source.

The results in this text go back to US10301295B2, “Herbicidal compounds” (Syngenta Participations AG, priority 2014, dated 2019).

Common to all, as to type: in vivo
Experiment [1] deals with wheat. Put plainly: Post-emergence herbicidal activity against cereal crops (wheat) +/- safener, crop selectivity. The following applies: 100%=total damage to plant, 0%=no damage; for Post-emergence herbicidal activity against wheat (percentage phytotoxicity), +CQC: 250 g/ha, plus safener cloquintocet-mexyl (CQC) applied at 50 g/ha; for percent phytotoxicity (crop damage) to wheat at 250 g/ha: Triticum aestivum, 360 h, without safener, read-out: Post-emergence herbicidal activity against wheat (percentage phytotoxicity), Wheat - CQC. An outline of the steps: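 Test plants raised in pots in a glasshouse (24/18 °C warm or 20/16 °C cool species day/night, 16 h light, 65% humidity) and treated post-emergence about 12 days after sowing. Visual percentage phytotoxicity scored 15 days after application (0% = no damage, 100% = total damage).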

The test system of experiment [2] is Lolium perenne (LOLPE). Nature of the experiment: Glasshouse assay for herbicidal activity, pre-/post-emergence (percentage phytotoxicity). The following applies: Lolium perenne, Rate 250 g/ha, 100%=total damage, 0%=no damage. An outline of the steps: (§1)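 Pre- and post-emergence treatments were applied to potted plants at 1 and ~12 days after sowing respectively. Percentage phytotoxicity was judged visually 20 or 15 days later.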

For experiment [3], the system named is Alopecurus myosuroides (ALOMY). The description is as above. The following applies: Alopecurus myosuroides, Rate 250 g/ha, 100%=total damage, 0%=no damage. An outline of the steps: as §1
In experiment [4] the test system is Echinochloa crus-galli (ECHCG). The experiment is described as above. To be noted: Echinochloa crus-galli, Rate 250 g/ha, 100%=total damage, 0%=no damage. In outline: as §1
For experiment [5], the system named is Avena fatua (AVEFA). The description is as above. The following applies: Avena fatua, Rate 250 g/ha, 100%=total damage, 0%=no damage. An outline of the steps:
as §1

Where [6] appears, read: post-emergence, 360 h, post-emergence, visual assessment 15 DAA, read-out: Post-emergence herbicidal activity (percentage phytotoxicity), LOLPE POST.
The mark [7] stands for this setting: pre-emergence, 480 h, pre-emergence, visual assessment 20 DAA, read-out: Pre-emergence herbicidal activity (percentage phytotoxicity), LOLPE PRE.
The mark [8] stands for this setting: 360 h, post-emergence, visual assessment 15 DAA, read-out: Post-emergence herbicidal activity (percentage phytotoxicity), ALOMY POST.
Where [9] appears, read: 480 h, pre-emergence, visual assessment 20 DAA, read-out: Pre-emergence herbicidal activity (percentage phytotoxicity), ALOMY PRE.
Where [10] appears, read: post-emergence, 360 h, post-emergence, visual assessment 15 DAA, read-out: Post-emergence herbicidal activity (percentage phytotoxicity), ECHCG POST.
Where [11] appears, read: pre-emergence, 480 h, pre-emergence, visual assessment 20 DAA, read-out: Pre-emergence herbicidal activity (percentage phytotoxicity), ECHCG PRE.
Where [12] appears, read: post-emergence, 360 h, post-emergence, visual assessment 15 DAA, read-out: Post-emergence herbicidal activity (percentage phytotoxicity), AVEFA POST.
[13] abbreviates: pre-emergence, 480 h, pre-emergence, visual assessment 20 DAA, read-out: Pre-emergence herbicidal activity (percentage phytotoxicity), AVEFA PRE.

As to `Cc1cc(-n2cc(Cl)cn2)cc(C)c1C1C(=O)CC(CCNC(=O)C2=NOC(C)(C)C2)C1=O` (stereo not drawn) [Compound A43], in experiment [1], the “Post-emergence herbicidal activity against wheat (percentage phytotoxicity), +CQC” value is listed as 50%. For the same molecule, in experiment [1], the percent phytotoxicity (crop damage) to wheat at 250 g/ha worked out at 90%. Also, the pest or weed control at 250 g/ha was 100% in experiment [2] (setting [6]); 90% in experiment [2] (setting [7]); 90% in experiment [3] (setting [8]); 90% in experiment [3] (setting [9]); 100% in experiment [4] (setting [10]); 90% in experiment [4] (setting [11]). Further, the results for the pest or weed control at 250 g/ha in experiment [5] (setting [12]) and in experiment [5] (setting [13]) were 100% and 90%, respectively.

On to `CON=C(C)C(=O)NCCC1CC(=O)C(c2c(C)cc(C)cc2C)C1=O` (stereo not drawn) [Compound A39], for which the “Post-emergence herbicidal activity against wheat (percentage phytotoxicity), +CQC” value in experiment [1] is reported as 10%. Also, in experiment [1], the percent phytotoxicity (crop damage) to wheat at 250 g/ha was 60%. In addition, the pest or weed control at 250 g/ha in experiment [2] (setting [6]) amounted to 100%; in experiment [2] (setting [7]) it was 90%; in experiment [3] (setting [8]), 80%; in experiment [3] (setting [9]) it was 80%; in experiment [4] (setting [10]), 50%; in experiment [4] (setting [11]), 30%. The pest or weed control at 250 g/ha is 80% in experiment [5] (setting [12]) and 50% in experiment [5] (setting [13]).

Consider `Cc1cc(C)c(C2C(=O)CC(CCNC(=O)NC(=O)c3ccccc3)C2=O)c(C)c1` (stereo not drawn) [Compound A46], for which, in experiment [1], the “Post-emergence herbicidal activity against wheat (percentage phytotoxicity), +CQC” value is 70%. Further, in experiment [1], the percent phytotoxicity (crop damage) to wheat at 250 g/ha was 80%. Besides, the pest or weed control at 250 g/ha in experiment [2] (setting [6]) is 100%; in experiment [2] (setting [7]), 70%; in experiment [3] (setting [8]), 70%; in experiment [3] (setting [9]), 30%; in experiment [4] (setting [10]) it was 100%; in experiment [4] (setting [11]), 60%. The pest or weed control at 250 g/ha was 90% in experiment [5] (setting [12]) and 30% in experiment [5] (setting [13]).

Consider `Cc1cc(C)c(C2C(=O)CC(CCNC(=O)NC(=O)c3cc(F)c(Cl)cc3Cl)C2=O)c(C)c1` (stereo not drawn) [Compound A65], for which the “Post-emergence herbicidal activity against wheat (percentage phytotoxicity), +CQC” value in experiment [1] was 40%. Further, in experiment [1], the percent phytotoxicity (crop damage) to wheat at 250 g/ha is 80%. In addition, the pest or weed control at 250 g/ha worked out at 100% in experiment [2] (setting [6]); 80% in experiment [2] (setting [7]); 100% in experiment [3] (setting [8]); 80% in experiment [3] (setting [9]); 80% in experiment [4] (setting [10]); 70% in experiment [4] (setting [11]). Further, the pest or weed control at 250 g/ha in experiment [5] (setting [12]) turned out to be 90%; in experiment [5] (setting [13]), 70%.

As to `Cc1cc(C)c(C2C(=O)CC(CCNC(=O)N(C)Cc3ccccc3)C2=O)c(C)c1` (stereo not drawn) [Compound A10], the “Post-emergence herbicidal activity against wheat (percentage phytotoxicity), +CQC” value in experiment [1] is recorded as 20%. In experiment [1], the percent phytotoxicity (crop damage) to wheat at 250 g/ha was determined as 70%. Also, the pest or weed control at 250 g/ha in experiment [2] (setting [6]) was 90%; in experiment [2] (setting [7]) it was 0%; in experiment [3] (setting [8]), 80%; in experiment [3] (setting [9]) it was 0%; in experiment [4] (setting [10]), 90%; in experiment [4] (setting [11]) it was 0%. Besides, the figures for the pest or weed control at 250 g/ha in experiment [5] (setting [12]) and in experiment [5] (setting [13]) were 80% and 0%, respectively.

For `CCS(=O)(=O)NCCC1CC(=O)C(c2c(C)cc(C)cc2C)C1=O` (stereo not drawn) [Compound A83], the “Post-emergence herbicidal activity against wheat (percentage phytotoxicity), +CQC” value in experiment [1] is 10%. Besides, in experiment [1], the percent phytotoxicity (crop damage) to wheat at 250 g/ha turned out to be 80%. Besides, the pest or weed control at 250 g/ha came to 70% in experiment [2] (setting [6]); 90% in experiment [2] (setting [7]); 80% in experiment [3] (setting [8]); 90% in experiment [3] (setting [9]); 70% in experiment [4] (setting [10]); 70% in experiment [4] (setting [11]). Besides, the pest or weed control at 250 g/ha in experiment [5] (setting [12]) and in experiment [5] (setting [13]) was 80% each time.

On to `Cc1cc(C)c(C2C(=O)CC(CCNc3nc4ccc(Cl)cc4o3)C2=O)c(C)c1.Cl` (stereo not drawn) [Compound A35], for which, in experiment [1], the “Post-emergence herbicidal activity against wheat (percentage phytotoxicity), +CQC” value was found to be 60%. The percent phytotoxicity (crop damage) to wheat at 250 g/ha in experiment [1] is 80%. Moreover, the pest or weed control at 250 g/ha in experiment [2] (setting [6]) is 100%; in experiment [2] (setting [7]), 100%; in experiment [3] (setting [8]) it was 90%; in experiment [3] (setting [9]), 70%; in experiment [4] (setting [10]), 100%; in experiment [4] (setting [11]), 80%. Also, the pest or weed control at 250 g/ha came out at 70% in experiment [5] (setting [12]) and 60% in experiment [5] (setting [13]).

As to `Cc1cc(C)c(C2C(=O)CC(CCNc3ncc(C(F)(F)F)cc3Cl)C2=O)c(C)c1` (stereo not drawn) [Compound A36], the “Post-emergence herbicidal activity against wheat (percentage phytotoxicity), +CQC” value in experiment [1] stood at 10%. In experiment [1], the percent phytotoxicity (crop damage) to wheat at 250 g/ha is 80%. Further, the pest or weed control at 250 g/ha in experiment [2] (setting [6]) is 100%; in experiment [2] (setting [7]) it was 90%; in experiment [3] (setting [8]), 90%; in experiment [3] (setting [9]), 60%; in experiment [4] (setting [10]), 90%; in experiment [4] (setting [11]), 90%. For the same molecule, the pest or weed control at 250 g/ha in experiment [5] (setting [12]) amounted to 100%; in experiment [5] (setting [13]) it was 90%.

Turning to `Cc1cc(-c2ncc(Cl)cc2F)cc(C)c1C1C(=O)CC(CCNC(=O)NC(C)(C)C)C1=O.Cl` (stereo not drawn) [Compound A29], the “Post-emergence herbicidal activity against wheat (percentage phytotoxicity), +CQC” value in experiment [1] is 70%. In addition, the percent phytotoxicity (crop damage) to wheat at 250 g/ha in experiment [1] stood at 90%. For the same molecule, the pest or weed control at 250 g/ha in experiment [2] (setting [6]) was determined as 100%; in experiment [2] (setting [7]), 100%; in experiment [3] (setting [8]), 100%; in experiment [3] (setting [9]) it was 90%; in experiment [4] (setting [10]), 100%; in experiment [4] (setting [11]) it was 90%. Also, the pest or weed control at 250 g/ha in experiment [5] (setting [12]) and in experiment [5] (setting [13]) was 100% each time.

Consider `COc1ccc(C(=O)NC(=O)NCCC2CC(=O)C(c3c(C)cc(C)cc3C)C2=O)cc1` (stereo not drawn) [Compound A57], for which, in experiment [1], the “Post-emergence herbicidal activity against wheat (percentage phytotoxicity), +CQC” value is recorded as 20%. Also, the percent phytotoxicity (crop damage) to wheat at 250 g/ha in experiment [1] amounted to 80%. Moreover, the pest or weed control at 250 g/ha came out at 100% in experiment [2] (setting [6]); 70% in experiment [2] (setting [7]); 90% in experiment [3] (setting [8]); 80% in experiment [3] (setting [9]); 80% in experiment [4] (setting [10]); 100% in experiment [4] (setting [11]). Further, the pest or weed control at 250 g/ha came out at 50% in experiment [5] (setting [12]) and 0% in experiment [5] (setting [13]).

`CON=C(C#N)C(=O)NCCC1CC(=O)C(c2c(C)cc(-n3cc(Cl)cn3)cc2C)C1=O` (stereo not drawn) [Compound A42]: the “Post-emergence herbicidal activity against wheat (percentage phytotoxicity), +CQC” value in experiment [1] was 10%. Further, the percent phytotoxicity (crop damage) to wheat at 250 g/ha in experiment [1] is 0%. In addition, the pest or weed control at 250 g/ha in experiment [2] (setting [6]) was determined as 10%; in experiment [2] (setting [7]) it was 0%; in experiment [3] (setting [8]), 0%; in experiment [3] (setting [9]), 0%; in experiment [4] (setting [10]) it was 70%; in experiment [4] (setting [11]), 0%. For the same molecule, the pest or weed control at 250 g/ha in experiment [5] (setting [12]) and in experiment [5] (setting [13]) was 0% in each case.

Take `Cc1cc(C)c(C2C(=O)CC(CCNS(=O)(=O)c3ccc(OC(F)(F)F)cc3)C2=O)c(C)c1` (stereo not drawn) [Compound A85]: the “Post-emergence herbicidal activity against wheat (percentage phytotoxicity), +CQC” value in experiment [1] was 10%. Besides, the percent phytotoxicity (crop damage) to wheat at 250 g/ha in experiment [1] came out at 20%. Further, the pest or weed control at 250 g/ha in experiment [2] (setting [6]) turned out to be 50%; in experiment [2] (setting [7]) it was 80%; in experiment [3] (setting [8]), 60%; in experiment [3] (setting [9]) it was 70%; in experiment [4] (setting [10]) it was 40%; in experiment [4] (setting [11]), 70%. The pest or weed control at 250 g/ha in experiment [5] (setting [12]) and in experiment [5] (setting [13]) was 80% each time.
